Test results published in publication PMC3877196 (Toxicon : official journal of the International Society on …, 2013).
*1 amine or outer side, *2 acyl side, *3 side chain or, on linkers, in order; H or OH if unused. Where a SMILES comes first, the peptide text is derived from it. CO = O=C([*:1])[*:2]

Target: T1, IXOSP (Ixodes scapularis salivary serine protease) (Ixodes scapularis, UniProt Q4PMM2)
T1 sequence (Q4PMM2 51-273): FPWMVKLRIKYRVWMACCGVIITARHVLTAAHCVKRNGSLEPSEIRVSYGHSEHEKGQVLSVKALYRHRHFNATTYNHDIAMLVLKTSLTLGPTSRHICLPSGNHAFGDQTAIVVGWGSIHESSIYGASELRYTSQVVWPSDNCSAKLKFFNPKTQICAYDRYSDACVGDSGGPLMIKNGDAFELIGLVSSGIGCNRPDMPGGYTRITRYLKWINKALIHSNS
Test: amidolytic assay, pNA release at […] nm
Format: biochemical
Conditions: read-out: Inhibition of activity (% ± SD)

`CC(C)[C@H](NC(=O)[C@H](CCCNC(=N)N)NC(=O)N[C@@H](Cc1ccccc1)C(=O)O)C(=O)N[C@H](C=O)CCCNC(=N)N` [Antipain] ({Phe-CO}-Arg-Val-Arg-aldehyde) gave an inhibition at 30 µM of 55 ± 4%.
